Results: PubChem BioAssay (NCI)
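Growth conditions: 96-well plates. Treatment: test compound, 48 hours, 5 concentrations. Analysis: linear interpolation between bracketing concentrations; unreached endpoints set to highest concentration. TGI: total growth inhibition.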

Key:
Experiment in all cases: NCI tumour cell line growth inhibition, 48 h
DLD-1 colon = system: DLD-1 colon
KM20L2 colon = system: KM20L2 colon
EKVX NSCLC = system: EKVX NSCLC
HCT-116 colon = system: HCT-116 colon
LOX IMVI melanoma = system: LOX IMVI melanoma
HT29 colon = system: HT29 colon
COLO 205 colon = system: COLO 205 colon
SW-620 colon = system: SW-620 colon
OVCAR-4 ovarian = system: OVCAR-4 ovarian
OVCAR-8 ovarian = system: OVCAR-8 ovarian
NCI-H460 lung = system: NCI-H460 lung
HCC-2998 colon = system: HCC-2998 colon
HL-60(TB) leukemia = system: HL-60(TB) leukemia
MCF7 breast = system: MCF7 breast
A498 renal = system: A498 renal
SF-295 CNS = system: SF-295 CNS
SF-268 CNS = system: SF-268 CNS
P388/ADR leukemia = system: P388/ADR leukemia
K-562 leukemia = system: K-562 leukemia
SNB-75 CNS = system: SNB-75 CNS
SNB-19 CNS = system: SNB-19 CNS
UO-31 renal = system: UO-31 renal
HCT-15 colon = system: HCT-15 colon
NCI-H522 lung = system: NCI-H522 lung
P388 leukemia = system: P388 leukemia
RXF 393 renal = system: RXF 393 renal
OVCAR-3 ovarian = system: OVCAR-3 ovarian
NCI-H23 lung = system: NCI-H23 lung
SN12K1 renal = system: SN12K1 renal
SN12C renal = system: SN12C renal
XF 498 CNS = system: XF 498 CNS
RPMI-8226 leukemia = system: RPMI-8226 leukemia
UACC-62 melanoma = system: UACC-62 melanoma
DMS 114 small cell lung = system: DMS 114 small cell lung
HOP-92 NSCLC = system: HOP-92 NSCLC
DMS 273 small cell lung = system: DMS 273 small cell lung
SNB-78 CNS = system: SNB-78 CNS
HOP-62 NSCLC = system: HOP-62 NSCLC
KM12 colon = system: KM12 colon
CCRF-CEM leukemia = system: CCRF-CEM leukemia
NCI/ADR-RES ovarian = system: NCI/ADR-RES ovarian
SF-539 CNS = system: SF-539 CNS
CAKI-1 renal = system: CAKI-1 renal
A549 NSCLC = system: A549 NSCLC
U251 CNS = system: U251 CNS
SK-MEL-2 melanoma = system: SK-MEL-2 melanoma
HOP-18 NSCLC = system: HOP-18 NSCLC
NCI-H226 lung = system: NCI-H226 lung
IGROV1 ovarian = system: IGROV1 ovarian
SK-MEL-28 melanoma = system: SK-MEL-28 melanoma
MALME-3M melanoma = system: MALME-3M melanoma
SK-OV-3 ovarian = system: SK-OV-3 ovarian
OVCAR-5 ovarian = system: OVCAR-5 ovarian
MOLT-4 leukemia = system: MOLT-4 leukemia
M19-MEL melanoma = system: M19-MEL melanoma
UACC-257 melanoma = system: UACC-257 melanoma
SK-MEL-5 melanoma = system: SK-MEL-5 melanoma
TK-10 renal = system: TK-10 renal
786-0 renal = system: 786-0 renal
ACHN renal = system: ACHN renal
LXFL 529 NSCLC = system: LXFL 529 NSCLC
M14 melanoma = system: M14 melanoma
RXF-631 renal = system: RXF-631 renal
SR leukemia = system: SR leukemia

For `O=C(NC(Cc1ccc(Br)cc1)C(=O)O)c1ccc(I)cc1` (stereo unspecified), the TGI (DLD-1 colon) was over 100 µM, the TGI (KM20L2 colon) was over 100 µM and the TGI (EKVX NSCLC) was over 100 µM. The TGI (HCT-116 colon) was over 100 µM, the TGI (LOX IMVI melanoma) was over 100 µM and the TGI (HT29 colon) was over 100 µM. The TGI (COLO 205 colon) was over 100 µM, the TGI (SW-620 colon) was over 100 µM and the TGI (OVCAR-4 ovarian) was over 100 µM. For the same compound, the TGI (OVCAR-8 ovarian) was over 100 µM, the TGI (NCI-H460 lung) was over 100 µM and the TGI (HCC-2998 colon) was over 100 µM. It also gave a TGI (HL-60(TB) leukemia) of over 100 µM, a TGI (MCF7 breast) of over 100 µM and a TGI (A498 renal) of over 100 µM. For the same compound, the TGI (SF-295 CNS) was over 100 µM, the TGI (SF-268 CNS) was over 100 µM and the TGI (P388/ADR leukemia) was over 100 µM. It also gave a TGI (K-562 leukemia) of over 100 µM, a TGI (SNB-75 CNS) of over 100 µM and a TGI (SNB-19 CNS) of over 100 µM. It also gave a TGI (UO-31 renal) of over 100 µM, a TGI (HCT-15 colon) of over 100 µM and a TGI (NCI-H522 lung) of over 100 µM. The TGI (P388 leukemia) was over 100 µM, the TGI (RXF 393 renal) was over 100 µM and the TGI (OVCAR-3 ovarian) was over 100 µM. For the same compound, the TGI (NCI-H23 lung) was over 100 µM, the TGI (SN12K1 renal) was over 100 µM and the TGI (SN12C renal) was over 100 µM. The TGI (XF 498 CNS) was over 100 µM, the TGI (RPMI-8226 leukemia) was over 100 µM and the TGI (UACC-62 melanoma) was over 100 µM. The TGI (DMS 114 small cell lung) was over 100 µM, the TGI (HOP-92 NSCLC) was over 100 µM and the TGI (DMS 273 small cell lung) was over 100 µM. The TGI (SNB-78 CNS) was over 100 µM, the TGI (HOP-62 NSCLC) was over 100 µM and the TGI (KM12 colon) was over 100 µM. The TGI (CCRF-CEM leukemia) was over 100 µM, the TGI (NCI/ADR-RES ovarian) was over 100 µM and the TGI (SF-539 CNS) was over 100 µM. The TGI (CAKI-1 renal) was over 100 µM, the TGI (A549 NSCLC) was over 100 µM and the TGI (U251 CNS) was over 100 µM. The TGI (SK-MEL-2 melanoma) was over 100 µM, the TGI (HOP-18 NSCLC) was over 100 µM and the TGI (NCI-H226 lung) was over 100 µM. It also gave a TGI (IGROV1 ovarian) of over 100 µM, a TGI (SK-MEL-28 melanoma) of over 100 µM and a TGI (MALME-3M melanoma) of over 100 µM. It also gave a TGI (SK-OV-3 ovarian) of over 100 µM, a TGI (OVCAR-5 ovarian) of over 100 µM and a TGI (MOLT-4 leukemia) of over 100 µM. It also gave a TGI (M19-MEL melanoma) of over 100 µM, a TGI (UACC-257 melanoma) of over 100 µM and a TGI (SK-MEL-5 melanoma) of over 100 µM.
With `COC(=O)c1ncc2c(=O)[nH]c3ccccc3c2c1C(=O)OC` the TGI (DLD-1 colon) was over 100 µM, the TGI (KM20L2 colon) was over 100 µM and the TGI (EKVX NSCLC) was over 100 µM. For the same compound, the TGI (HCT-116 colon) was over 100 µM, the TGI (LOX IMVI melanoma) was over 100 µM and the TGI (HT29 colon) was over 100 µM. It also gave a TGI (TK-10 renal) of over 100 µM, a TGI (SW-620 colon) of over 100 µM and a TGI (OVCAR-4 ovarian) of over 100 µM. It also gave a TGI (OVCAR-8 ovarian) of over 100 µM, a TGI (NCI-H460 lung) of 47.3 µM and a TGI (HCC-2998 colon) of over 100 µM. The TGI (HL-60(TB) leukemia) was over 100 µM, the TGI (A498 renal) was over 100 µM and the TGI (SF-295 CNS) was over 100 µM. For the same compound, the TGI (SF-268 CNS) was over 100 µM, the TGI (K-562 leukemia) was over 100 µM and the TGI (SNB-75 CNS) was over 100 µM. The TGI (SNB-19 CNS) was over 100 µM, the TGI (UO-31 renal) was over 100 µM and the TGI (HCT-15 colon) was over 100 µM. For the same compound, the TGI (RXF 393 renal) was over 100 µM, the TGI (OVCAR-3 ovarian) was over 100 µM and the TGI (786-0 renal) was over 100 µM. The TGI (NCI-H23 lung) was over 100 µM, the TGI (ACHN renal) was over 100 µM and the TGI (LXFL 529 NSCLC) was over 100 µM. It also gave a TGI (SN12C renal) of over 100 µM, a TGI (XF 498 CNS) of over 100 µM and a TGI (RPMI-8226 leukemia) of over 100 µM. For the same compound, the TGI (M14 melanoma) was over 100 µM, the TGI (UACC-62 melanoma) was over 100 µM and the TGI (DMS 114 small cell lung) was over 100 µM. It also gave a TGI (HOP-92 NSCLC) of over 100 µM, a TGI (DMS 273 small cell lung) of over 100 µM and a TGI (SNB-78 CNS) of over 100 µM. For the same compound, the TGI (HOP-62 NSCLC) was over 100 µM, the TGI (KM12 colon) was over 100 µM and the TGI (CCRF-CEM leukemia) was over 100 µM. It also gave a TGI (SF-539 CNS) of over 100 µM, a TGI (CAKI-1 renal) of over 100 µM and a TGI (A549 NSCLC) of over 100 µM. It also gave a TGI (SK-MEL-2 melanoma) of over 100 µM, a TGI (HOP-18 NSCLC) of over 100 µM and a TGI (NCI-H226 lung) of over 100 µM. The TGI (IGROV1 ovarian) was over 100 µM, the TGI (SK-MEL-28 melanoma) was over 100 µM and the TGI (MALME-3M melanoma) was over 100 µM. The TGI (OVCAR-5 ovarian) was over 100 µM, the TGI (RXF-631 renal) was over 100 µM and the TGI (MOLT-4 leukemia) was over 100 µM. It also gave a TGI (M19-MEL melanoma) of over 100 µM, a TGI (SR leukemia) of over 100 µM and a TGI (UACC-257 melanoma) of over 100 µM. The TGI (SK-MEL-5 melanoma) was over 100 µM.
`COc1cccc(/C=C/C(=O)c2sc(C(N)=S)nc2C)c1O` was tested, and the TGI (DLD-1 colon) was over 68.5 µM, the TGI (KM20L2 colon) was over 100 µM and the TGI (EKVX NSCLC) was over 100 µM. For the same compound, the TGI (HCT-116 colon) was over 92.5 µM, the TGI (LOX IMVI melanoma) was 56.7 µM and the TGI (HT29 colon) was over 100 µM. The TGI (TK-10 renal) was over 100 µM, the TGI (COLO 205 colon) was over 100 µM and the TGI (SW-620 colon) was 86.3 µM. The TGI (OVCAR-4 ovarian) was over 100 µM, the TGI (OVCAR-8 ovarian) was over 100 µM and the TGI (NCI-H460 lung) was over 100 µM. For the same compound, the TGI (HCC-2998 colon) was over 100 µM, the TGI (HL-60(TB) leukemia) was over 100 µM and the TGI (A498 renal) was over 100 µM. The TGI (SF-295 CNS) was over 100 µM, the TGI (SF-268 CNS) was over 100 µM and the TGI (K-562 leukemia) was over 100 µM. The TGI (SNB-75 CNS) was over 100 µM, the TGI (SNB-19 CNS) was over 100 µM and the TGI (UO-31 renal) was over 100 µM. The TGI (HCT-15 colon) was over 76.5 µM, the TGI (NCI-H522 lung) was over 74 µM and the TGI (RXF 393 renal) was over 100 µM. For the same compound, the TGI (OVCAR-3 ovarian) was over 100 µM, the TGI (786-0 renal) was over 100 µM and the TGI (NCI-H23 lung) was over 100 µM. The TGI (ACHN renal) was over 100 µM, the TGI (LXFL 529 NSCLC) was over 50.1 µM and the TGI (SN12C renal) was over 100 µM. The TGI (XF 498 CNS) was over 100 µM, the TGI (RPMI-8226 leukemia) was over 83.3 µM and the TGI (M14 melanoma) was over 100 µM. For the same compound, the TGI (UACC-62 melanoma) was over 100 µM, the TGI (DMS 114 small cell lung) was over 100 µM and the TGI (HOP-92 NSCLC) was over 100 µM. The TGI (DMS 273 small cell lung) was over 91.3 µM, the TGI (SNB-78 CNS) was over 100 µM and the TGI (HOP-62 NSCLC) was over 100 µM. The TGI (KM12 colon) was over 100 µM, the TGI (CCRF-CEM leukemia) was 64.2 µM and the TGI (SF-539 CNS) was 97 µM. The TGI (CAKI-1 renal) was over 100 µM, the TGI (A549 NSCLC) was over 100 µM and the TGI (U251 CNS) was over 100 µM. For the same compound, the TGI (SK-MEL-2 melanoma) was over 100 µM, the TGI (HOP-18 NSCLC) was over 100 µM and the TGI (NCI-H226 lung) was over 100 µM. For the same compound, the TGI (IGROV1 ovarian) was over 100 µM, the TGI (SK-MEL-28 melanoma) was over 100 µM and the TGI (MALME-3M melanoma) was over 100 µM. For the same compound, the TGI (SK-OV-3 ovarian) was over 100 µM, the TGI (OVCAR-5 ovarian) was over 100 µM and the TGI (RXF-631 renal) was over 100 µM. For the same compound, the TGI (MOLT-4 leukemia) was over 82.8 µM, the TGI (M19-MEL melanoma) was over 100 µM and the TGI (SR leukemia) was 32.5 µM. The TGI (UACC-257 melanoma) was over 100 µM and the TGI (SK-MEL-5 melanoma) was over 100 µM.
